Broadly, the IC50 is the point on the concentration scale where inhibition reaches its midpoint.

This experiment deals with human factor IXa (Homo sapiens (Human), UniProt P00740). Nature of the experiment: Determination of Inhibitory Activity Against Factor IXa. Type of experiment: biochemical. The note with it: Factor IXa enzyme assay human; read-out: FIXa IC50. As for the experimental part: Inhibitory activity against factor IXa was tested using the substrate SPECTROFLUOR FIXa (american diagnostica inc.; 500 West Avenue, Stamford, Conn. 06902 USA; Pr. No. 299F) and human factor IXa (american diagnostica inc.; Pr. No. 449b). Test substances were dissolved in buffer A (50 mM α,α,α-tris(hydroxymethyl) methylamine (Tris), 100 mM NaCl, 5 mM CaCl2, 15% (v/v) ethylene glycol, pH 8.0) were mixed with factor IXa (0.1 μg/ml final concentration). The enzyme reaction was started by addition of SPECTROFLUOR FIXa (100 μM final concentration). After incubation for 60 minutes at room temperature, the reaction was stopped by the addition of 20% (v/v) acetic acid solution, and then the fluorescence value was measured (Excitation Wavelength: 355 nm, Emission Wavelength; 460 nm) in a microtiter plate reader (ARVO 1420 Multilabel Counter; PerkinElmer).
Sequence of human factor IXa (P00740 227-461): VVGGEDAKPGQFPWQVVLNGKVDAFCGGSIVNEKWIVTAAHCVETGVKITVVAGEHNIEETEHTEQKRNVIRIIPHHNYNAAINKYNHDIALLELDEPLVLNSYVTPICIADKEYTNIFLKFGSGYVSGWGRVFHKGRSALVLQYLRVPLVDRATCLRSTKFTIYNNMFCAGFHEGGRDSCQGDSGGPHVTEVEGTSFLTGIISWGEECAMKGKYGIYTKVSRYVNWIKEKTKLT
Sequence of human factor IXa (P00740 47-191 partner): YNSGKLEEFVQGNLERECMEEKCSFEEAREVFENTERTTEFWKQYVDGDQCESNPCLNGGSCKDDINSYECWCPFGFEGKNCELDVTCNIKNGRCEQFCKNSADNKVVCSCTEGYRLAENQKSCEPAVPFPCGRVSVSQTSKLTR
The IC50 was calculated from a dilution series of the test substance with the aid of the software, Symyx Assay Explorer (Symyx Technologies, Inc.).
For the molecule `Cc1cc(N2CCC(NC(=O)c3c(Cl)cc(-n4cnc(C)n4)cc3Cl)C2)c2onc(N)c2c1` (stereo not drawn) [Example 6, N-(1-(3-Amino-5-methylbenzo[d]isoxazol-7-yl)pyrrolidin-3-yl)-2,6-dichloro-4-(3-methyl-1H-1,2,4-triazol-1-yl)benzamide], the half-maximal inhibitory concentration (IC50) was no more than 100 nM. In the case of `CC1(NC(=O)c2c(Cl)cc(-n3cnnc3)cc2Cl)CCN(c2cccc3c(N)noc23)C1` (stereo not drawn) [Example 2, N-(1-(3-Aminobenzo[d]isoxazol-7-yl)-3-methylpyrrolidin-3-yl)-2,6-dichloro-4-(4H-1,2,4-triazol-4-yl)benzamide], the IC50 is no more than 100 nM.

With `Nc1noc2c(N3CC[C@@H](NC(=O)c4ccc(-c5ccc(=O)n(CC(F)(F)F)c5)cc4Cl)C3)ncc(Cl)c12` [Example 35, (R)—N-(1-(3-Amino-4-chloroisoxazolo[5,4-c]pyridin-7-yl)pyrrolidin-3-yl)-2-chloro-4-(6-oxo-1-(2,2,2-trifluoroethyl)-1,6-dihydropyridin-3-yl)benzamide], the IC50 was no more than 100 nM.

For the origin of these results see US9969724B2, “Factor IXa inhibitors” (Merck Sharp & Dohme Corp., priority 2014, dated 2018).
